Where a name gives a salt, the structure may show the parent alone.
Columns and labels:
5-HT1D = biological target: T1, 5-HT1D (Bos taurus, UniProt F1MGM3); assay: 5-HT1D binding site affinity (tritiated serotonin; methodology of Heuring and Peroutka with minor modifications); settings: in vitro
T1 construct: from tissue
Procedure: Determination of 5-HT1D binding properties was accomplished employing methodology such as that described by Heuring and Peroutka, J. Neurosci., 7(3), 1987, 894-903; with only minor modifications. In vitro IC50 (nM) test values were determined for the compounds of this invention employing tritiated serotonin.

[1] = use in headache treatment; cited from earlier work
migraine sufferers = settings: migraine patients; cited from earlier work
plasma serotonin = settings: intramuscular injection; cited from earlier work

T1 sequence (F1MGM3 1-403): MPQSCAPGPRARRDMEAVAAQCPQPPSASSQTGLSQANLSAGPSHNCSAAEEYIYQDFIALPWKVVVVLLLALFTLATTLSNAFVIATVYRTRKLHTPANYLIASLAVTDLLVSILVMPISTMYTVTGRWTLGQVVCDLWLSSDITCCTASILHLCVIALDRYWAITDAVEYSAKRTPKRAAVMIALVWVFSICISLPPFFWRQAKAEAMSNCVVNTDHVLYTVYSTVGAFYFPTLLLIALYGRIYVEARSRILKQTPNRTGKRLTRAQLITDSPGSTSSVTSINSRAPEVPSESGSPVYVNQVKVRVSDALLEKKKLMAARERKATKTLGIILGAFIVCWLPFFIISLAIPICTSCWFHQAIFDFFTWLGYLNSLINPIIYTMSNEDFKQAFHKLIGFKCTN

SMILES | IC50 (5-HT1D) | other results
COc1cncnc1N1CCN(CCCc2c[nH]c3ccc(O)cc23)CC1 [Example 55, 1-[3-(5-Hydroxy-1H-indol-3-yl)propyl]-4-(5-methoxy-4-pyrimidinyl)piperazine] | 0.8 nM | 
COc1cncnc1N1CCN(CCCc2c[nH]c3ccccc23)CC1C (stereo not drawn) [Example 62] | 4.2 nM | 
COc1cncnc1N1CCN(CCCc2c[nH]c3c(F)ccc(F)c23)CC1 [Example 75] | 5.1 nM | 
COc1cncnc1N1CCN(CCCc2c[nH]c3cc(F)c(F)cc23)CC1 [Example 74] | 29 nM | 
COc1cncnc1N1CCN(CCCc2c[nH]c3ccc(NS(C)(=O)=O)cc23)CC1 [Example 63] | 5.2 nM | 
CC[C@@H](CO)NC(=O)[C@@H]1C=C2c3cccc4c3c(cn4C)C[C@H]2N(C)C1 [methysergide] |  | side-effects / dependence (in words) [1]: severe use-limiting side-effects with long term usage
COC(=O)[C@H]1[C@H]2C[C@@H]3c4[nH]c5cc(OC)ccc5c4CCN3C[C@H]2C[C@@H](OC(=O)c2cc(OC)c(OC)c(OC)c2)[C@@H]1OC [reserpine] |  | effect on migraine headache (in words) (migraine sufferers): induces a typical migraine-type headache; effect on plasma serotonin (in words) (plasma serotonin): lowers plasma serotonin
CCC(CCc1c[nH]c2ccccc12)N1CCN(c2ncncc2OC)CC1 (stereo not drawn) [Example 54, 3-[3-[4-(5-Methoxy-4-pyrimidinyl)-1-piperazinyl]pentyl]indole] | 20.5 nM | 
COc1cncnc1N1CCN(CCCc2c[nH]c3ccc(N(C)S(C)(=O)=O)cc23)CC1 [Example 65] | 4.9 nM | 
COc1cncnc1N1CCN(CCCc2c[nH]c3c(F)cc(F)cc23)CC1 [Example 76] | 8.1 nM | 
COc1ccc2[nH]cc(CCCN3CCN(c4ncncc4OC)CC3)c2c1 [Example 73] | 1.1 nM | 
CCOc1ccc2[nH]cc(CCCN3CCN(c4ncncc4OC)CC3)c2c1 [Example 71] | 2.2 nM | 
NCCc1c[nH]c2ccc(O)cc12 [serotonin creatinine sulfate] |  | effect on migraine headache (in words) (migraine sufferers): induced headache can be alleviated
COc1cncnc1N1CCN(CCCc2c[nH]c3ccc(N(C)S(C)(=O)=O)cc23)CC1C (stereo not drawn) [Example 66] | 12 nM | 
CCS(=O)(=O)Nc1ccc2[nH]cc(CCCN3CCN(c4ncncc4OC)CC3)c2c1 [Example 67] | 13.7 nM | 
COc1cncnc1N1CCN(C(C)CCc2c[nH]c3ccccc23)CC1 (stereo not drawn) [Example 53] | 5 nM | 
CCS(=O)(=O)Nc1ccc2[nH]cc(CCCN3CCN(c4ncncc4OC)C(C)C3)c2c1 (stereo not drawn) [Example 70] | 17.1 nM | 
CCOc1cncnc1N1CCN(CCCc2c[nH]c3ccccc23)CC1 [Example 52, 4-(5-Ethoxy-4-pyrimidinyl)-1-[3-(1H-indol-3-yl)propyl]piperazine hydrochloride hydrate] | 2 nM | 
COc1cncnc1N1CCN(CCCc2c[nH]c3ccc(F)cc23)CC1 [Example 60] | 3 nM | 
NCCc1c[nH]c2ccc(O)cc12 [serotonin] |  | effect on migraine headache (in words) (migraine sufferers): effective in treating migraine attacks; side-effects / dependence (in words) [1]: restlessness, nausea, faintness, hyperpnea, facial flushing and parasthesias
CCS(=O)(=O)N(C)c1ccc2[nH]cc(CCCN3CCN(c4ncncc4OC)C(C)C3)c2c1 (stereo not drawn) [Example 69] | 19.1 nM | 
COc1cncnc1N1CCN(CCCc2c[nH]c3ccc(OCc4ccccc4)cc23)CC1 [Example 72] | 14.3 nM | 
CN1C[C@H](C(=O)N[C@]2(C)O[C@@]3(O)[C@@H]4CCCN4C(=O)[C@H](Cc4ccccc4)N3C2=O)C=C2c3cccc4[nH]cc(c34)C[C@H]21 [ergotamine] |  | side-effects / dependence (in words) [1]: cause dependence with extended use
COc1cncnc1N1CCN(CCCc2c[nH]c3ccccc23)CC1 [Example 61] | 2.9 nM | 
CCS(=O)(=O)N(C)c1ccc2[nH]cc(CCCN3CCN(c4ncncc4OC)CC3)c2c1 [Example 68] | 12.9 nM | 

From patent US5300506A, “Indolylalkyl derivatives of pyrimidinylpiperazine for treating vascular headache” (Bristol-Myers Squibb Company, priority 1992, dated 1994)
